For series [1] the following is noted: humans, cited from earlier work.
For a further series, the system named is type 1 IGF receptor. As to conditions: cited from earlier work.
In series [2] the test system is MCF-7 (human breast carcinoma). In words: Cell proliferation response to insulin and IGF-1: MCF-7. It is filed as cell-based. Conditions: MCF-7, minimal medium, 1 ug/ml insulin or 100 ng/ml IGF-1, 1, 2 and 4 days; data not shown. The method, then:
(§1) The cell lines LNCAP, MCF-7, MDA-231, SCK, and HOP-92 were also tested to determine whether the cells increased their proliferation in the presence of insulin or IGF-1. Cells were plated in minimal medium with no addition (negative control), 1 ug/ml insulin, 100 ng/ml IGF-1, or 10% fetal calf serum (positive control), and cell density was monitored at 1, 2, and 4 days after plating. […] (Data not shown).

Series [3] deals with MDA-231 (human breast carcinoma). In words: Cell proliferation response to insulin and IGF-1: MDA-231. It is filed as cell-based. Conditions: MDA-231, minimal medium, 1 ug/ml insulin or 100 ng/ml IGF-1, 1, 2 and 4 days; data not shown. The procedure:
as §1

Series [4] has as its system LNCAP (human prostate carcinoma). In words: Cell proliferation response to insulin and IGF-1: LNCAP. As to conditions: minimal medium, 1 ug/ml insulin or 100 ng/ml IGF-1, 1, 2 and 4 days, data not shown. Type of series: cell-based. The method, then:
as §1

The test system of series [5] is SCK (mouse mammary carcinoma). In words: Cell proliferation response to insulin and IGF-1: SCK. Type of series: cell-based. Conditions: minimal medium, 1 ug/ml insulin or 100 ng/ml IGF-1, 1, 2 and 4 days, data not shown. The method, then:
as §1

The subject of the next series is FSAII tumors. In words: FSAII tumor growth in vivo in mice. Also noted: species or system mouse. The procedure:
FSAII testing. Six-week old female mice were injected subcutaneously in the thigh with 200,000 FSAII cells each in serum-free medium. Tumors were allowed to grow until they reached an average volume of 100 mm^3 (calculated as length×breadth^2). At that time, treatment was initiated. […] A fifth group of mice was untreated controls. Each group contained five mice. Mice were treated on days 0, 2, and 5. Tumor growth was measured every second day.

The next series concerns LNCAP tumors. Type of series: in vivo, mouse. The procedure: LNCAP testing. Eight-week old athymic male mice (nu/nu) were injected subcutaneously in the thigh with 1 million LNCAP cells in serum-free medium. Tumors were allowed to grow until they reached an average size of 100 mm^3. […] A fifth group of mice was untreated controls.
[6] abbreviates: high dose 60 μmoles/kg methotrexate, intraperitoneally, days 0, 2 and 5.
[7] abbreviates: low dose conjugate vs high dose methotrexate.

Where two headings read alike, the source gives them in different places.

With `COc1cccc2c1C(=O)c1c(O)c3c(c(O)c1C2=O)C[C@@](O)(C(=O)CO)C[C@@H]3O[C@H]1C[C@H](N)[C@H](O)[C@H](C)O1` [doxorubicin], the maximum safe dosage entry in series [1] (cumulative per 3 weeks) is listed as “approximately 130 micromoles per meter squared per 3 weeks”. Besides, the minimum effective dosage in series [1] (lowest dosage usually used) is ~100 micromoles per meter squared per 3 weeks; in series [1] (per 3 weeks) it was “about 60 mg/m^2”.
With “long-R3-IGF-1: variant of IGF-1, SEQ ID NO:4, reduced binding affinity for soluble IGF binding proteins (GroPep)”, in the series with type 1 IGF receptor, the “binding affinity for the type 1 IGF receptor compared to wild-type IGF-1” value is recorded as “equal binding affinity”.
For `CC[C@]1(O)C[C@H]2CN(CCc3c([nH]c4ccccc34)[C@@](C(=O)OC)(c3cc4c(cc3OC)N(C=O)[C@H]3[C@@](O)(C(=O)OC)[C@H](OC(C)=O)[C@]5(CC)C=CCN6CC[C@]43[C@@H]65)C2)C1` [vincristine], in series [1] (cumulative per 3 weeks), the maximum safe dosage entry is listed as “about 8 micromoles per meter squared per 3 weeks”. Moreover, the minimum effective dosage result in series [1] (lowest dosage usually used) is “about 3.25 micromoles per meter squared per 3 weeks”.
On to insulin: insulin, for which the stimulation of proliferation entry in series [2], in series [3], in series [4] and in series [5] was “stimulated proliferation” throughout.
As to `CC(=O)O[C@@]12CO[C@@H]1C[C@H](O)[C@@]1(C)C(=O)[C@H](O)C3=C(C)[C@@H](OC(=O)[C@H](O)[C@@H](NC(=O)OC(C)(C)C)c4ccccc4)C[C@@](O)([C@@H](OC(=O)c4ccccc4)[C@H]21)C3(C)C` [docetaxel], the maximum safe dosage entry in series [1] (cumulative per 3 weeks) is reported as “about 120 micromoles per meter squared per 3 weeks”. In series [1] (lowest dosage usually used), the minimum effective dosage result is given as “about 70 micromoles per meter squared per 3 weeks”.
In the case of “IGF-1: human insulin-like growth factor-1, SEQ ID NO:1”, the stimulation of proliferation entry in series [2], in series [3], in series [4] and in series [5] was “stimulated proliferation” throughout.
Turning to “insulin-methotrexate conjugate: approximately 3 MTX attached to each insulin by direct amide bonds to the two alpha amino groups and one lysine side chain”, in the series on FSAII tumors (setting [6]), the “effect on FSAII tumor growth” value was “appeared to very significantly slow tumor growth” and the “toxicity (death of mice)” value is reported as “killed all five mice by one day following the third treatment”. For the same molecule, the “effect on FSAII tumor growth” value with FSAII tumors (low dose 15 μmoles/kg methotrexate, intraperitoneally, days 0, 2 and 5) is listed as “significantly slowed tumor growth”. In the series on FSAII tumors (setting [7]), the “activity against FSAII tumors in vivo relative to unconjugated methotrexate” value is reported as “at least 4 fold”. In addition, the “effect on LNCAP tumor growth” value with LNCAP tumors (low dose 15 μmoles/kg methotrexate, days 0, 4, 8, 18, 22 and 26) is on record as “appeared to slow tumor growth”. Also, in the series with LNCAP tumors (setting [7]), the “lower concentration at which effective against LNCAP tumors relative to unconjugated methotrexate” value is given as “at least 2.6 times”.
In the case of `O=P1(N(CCCl)CCCl)NCCCO1` (stereo not drawn) [cyclophosphamide], in series [1], the maximum safe dosage result is reported as “approximately 5 millimoles per meter squared per 3 weeks” and the minimum effective dosage entry is on record as “approximately 3 millimoles per meter squared per 3 weeks”.

The record behind these values is patent US9011880B2, “Compounds and methods for treating cancer” (IGF Oncology, LLC, priority 2003, dated 2015).
